Data set [1] relates to Mycobacterium tuberculosis. Kind of data set: Antitubercular activity against Mycobacterium tuberculosis H37Ra transfected with TYOK plasmid assessed as relative light units after 4 days by selectable marker-free autoluminescent assay. It counts as functional. The note with it: 96 h.
Data set [2] in a line: Cytotoxicity against African green monkey Vero cells assessed as reduction cell survival rate after 72 hrs by CCK8 assay. It counts as toxicity, cell-based, Chlorocebus sabaeus.
Data set [3] can be described thus: Solubility of the compound. It counts as physicochemical.
The nature of data set [4]: Tmax in Sprague-Dawley rat at 2 mg/kg, iv by LC/MS analysis. It counts as ADME, organism-based. The note with it: in vivo.
For data set [5], the system named is Mycobacterium tuberculosis. Briefly: In vivo anti-tubercular activity against Mycobacterium tuberculosis H37Ra transfected with TYOK plasmid infected in BALB/c mouse assessed as ratio of RLU on day 3 to RLU on day 1 at 40 mg/kg/day administered QD for 3 days. It counts as functional.
Data set [6] has as its system Mycobacterium tuberculosis. Briefly: In vivo anti-tubercular activity against Mycobacterium tuberculosis H37Ra transfected with TYOK plasmid infected in BALB/c mouse assessed as ratio of RLU on day 3 to RLU on day 1 at 10 mg/kg/day administered QD for 3 days. It counts as functional.
The nature of data set [7]: Clearance in Sprague-Dawley rat at 10 mg/kg, administered through oral gavage by LC/MS analysis. It counts as ADME, organism-based. The note with it: in vivo.
The test system of data set [8] is Mycobacterium tuberculosis. Briefly: In vivo anti-tubercular activity against Mycobacterium tuberculosis H37Ra transfected with TYOK plasmid infected in BALB/c mouse assessed as decrease in ratio of RLU on day 3 to RLU on day 1 administered QD for 3 days. It counts as functional, organism-based.
The nature of data set [9]: Clearance in Sprague-Dawley rat at 2 mg/kg, iv by LC/MS analysis. It counts as ADME, organism-based. The note with it: in vivo.
Data set [10] can be described thus: Half life in Sprague-Dawley rat at 10 mg/kg, administered through oral gavage by LC/MS analysis. The conditions noted are these: in vivo. It counts as ADME, organism-based.
Data set [11] can be described thus: AUC (0 to infinity) in Sprague-Dawley rat at 10 mg/kg, administered through oral gavage by LC/MS analysis. It counts as ADME, organism-based. Also noted: dose 10 mg/kg, time infinity, route oral. The conditions noted are these: in vivo.
Data set [12] is described as follows: Cmax in Sprague-Dawley rat at 10 mg/kg, administered through oral gavage by LC/MS analysis. It counts as ADME, organism-based. Details: dose 10 mg/kg, route oral. The note with it: in vivo.
A short description of data set [13]: Half life in Sprague-Dawley rat at 2 mg/kg, iv by LC/MS analysis. It counts as ADME, organism-based. The note with it: in vivo.
Data set [14] deals with Mycobacterium tuberculosis. Briefly: In vivo anti-tubercular activity against Mycobacterium tuberculosis H37Ra transfected with TYOK plasmid infected in BALB/c mouse assessed as ratio of RLU on day 3 to RLU on day 1 at 2.5 mg/kg/day administered QD for 3 days. It counts as functional.
A short description of data set [15]: Cmax in Sprague-Dawley rat at 2 mg/kg, iv by LC/MS analysis. The note with it: in vivo. It counts as ADME, organism-based. Details: dose 2 mg/kg, route intravenous.
Data set [16] is described as follows: Oral bioavailability in Sprague-Dawley rat at 10 mg/kg by LC/MS analysis. It counts as ADME, organism-based. The conditions noted are these: in vivo.
The nature of data set [17]: Tmax in Sprague-Dawley rat at 10 mg/kg, administered through oral gavage by LC/MS analysis. It counts as ADME, organism-based. The note with it: in vivo.
Data set [18] can be described thus: AUC (0 to infinity) in Sprague-Dawley rat at 2 mg/kg, iv by LC/MS analysis. It counts as ADME, organism-based. Details: dose 2 mg/kg, time infinity, route intravenous. The note with it: in vivo.
Data set [19] relates to Mycobacterium tuberculosis. Briefly: In vivo anti-tubercular activity against Mycobacterium tuberculosis H37Ra transfected with TYOK plasmid infected in BALB/c mouse assessed as increase in ratio of RLU on day 3 to RLU on day 1 at 10 mg/kg/day administered QD for 3 days relative to control. It counts as functional.

By MIC is commonly meant the least concentration at which growth counts as inhibited. The term IC50 denotes the concentration that gives 50% inhibition. Usually Tmax stands for the time at which the peak concentration occurs. As a reminder, the CL/F is the apparent clearance, not corrected for the fraction that reaches the circulation. The term clearance denotes the volume of plasma or blood freed of the substance per unit of time. Usually half-life stands for how long it takes for the measured level to halve. What is called AUC(0-inf) is total exposure, with the tail of the curve extrapolated. By Cmax is commonly meant the highest concentration seen after dosing. The bioavailability is dose-corrected exposure relative to a reference, in per cent.

Values after ≈ are worked out from the molar mass of the structure shown. Where only a bound is given, the exact number is not on record here.

Regarding `Cc1ccc2oc(C)c(C(=O)NCc3ccc(N4CCC(c5ccc(OC(F)(F)F)cc5)CC4)cc3)c2c1`, the MIC in [1] is over 30 µg/mL.
As for `Cc1nc2scc(C)n2c1C(=O)NCc1ccc(N2CCC(c3ccc(OC(F)(F)F)cc3)CC2)cc1`, in data set [1], the MIC is 1 µg/mL (≈ 1.89 µM). For the same compound, the IC50 at 72 h in data set [2] was over 100 µM. Besides, in data set [3], the solubility result was “Insoluble”.
For `Cc1ccn2nc(C)c(C(=O)NCc3ccc(N4CCC(c5ccc(OC(F)(F)F)cc5)CC4)cc3)c2n1`, the MIC in data set [1] was over 30 µg/mL.
Consider `Cc1nn2ccsc2c1C(=O)NCc1ccc(N2CCC(c3ccc(OC(F)(F)F)cc3)CC2)cc1`, for which, in data set [1], the MIC is 0.3 µg/mL (≈ 0.583 µM). The IC50 at 72 h in [2] was over 100 µM.
`Cc1cn2c(C(=O)NCc3ccc(N4CCC(c5ccc(OC(F)(F)F)cc5)CC4)cc3)c(C)nc2s1`: the MIC in [1] was determined as 0.01 µg/mL (≈ 0.0189 µM). Further, the concentration for half-maximal inhibition (IC50) at 72 h in data set [2] is over 100 µM. For the same compound, the solubility entry in data set [3] is “Insoluble”.
`Cc1nn2c(C)csc2c1C(=O)NCc1ccc(N2CCC(c3ccc(OC(F)(F)F)cc3)CC2)cc1`: the MIC in data set [1] is 0.1 µg/mL (≈ 0.189 µM). In [2], the IC50 at 72 h was over 100 µM.
On to `Cc1cn2nc(C)c(C(=O)NCc3ccc(N4CCC(c5ccc(OC(F)(F)F)cc5)CC4)cc3)c2s1`, for which the Tmax in data set [4] was determined as 4.98 min; in data set [17], 5 h. Besides, the Ratio in data set [5] is recorded as 0.36; in data set [6], 0.91; in data set [14], 1.05. In addition, in [1], the MIC came to 0.03 µg/mL (≈ 0.0568 µM). In addition, the IC50 at 72 h in data set [2] is over 100 µM. Further, in data set [7], the CL/F is 20.2 mL/min/kg. For the same compound, the Activity result in data set [8] was “Dose-dependent effect”. This compound also had a clearance in data set [9] of 8.17 mL/min/kg. Also, the half-life in [10] is 13.4 h; in data set [13] it was 14.1 h. Moreover, the results for the AUC(0-inf) in data set [11] and in [18] were 8560 ng·h/mL and 4110 ng·h/mL, respectively. For the same compound, the Cmax in data set [12] worked out at 373 ng/mL; in data set [15], 1720 ng/mL. The same compound gave a bioavailability in data set [16] of 41.7%.
Turning to `CCc1nc2ccc(Cl)cn2c1C(=O)NCc1ccc(N2CCC(c3ccc(OC(F)(F)F)cc3)CC2)cc1` [TELACEBEC], the MIC in data set [1] is 0.003 µg/mL (≈ 0.00539 µM).
The same measure, in the same setting: the result for `CO[C@H]1/C=C/O[C@@]2(C)Oc3c(C)c(O)c4c(O)c(c(/C=N/N5CCN(C)CC5)c(O)c4c3C2=O)NC(=O)/C(C)=C\C=C\[C@H](C)[C@H](O)[C@@H](C)[C@@H](O)[C@@H](C)[C@H](OC(C)=O)[C@@H]1C` [RIFAMPIN] reads 0.003 µg/mL (≈ 0.00365 µM).
Regarding `Cc1nn2ccc(=O)[nH]c2c1C(=O)NCc1ccc(N2CCC(c3ccc(OC(F)(F)F)cc3)CC2)cc1`, the MIC in [1] was over 30 µg/mL.
Regarding `Cc1nc2sccn2c1C(=O)NCc1ccc(N2CCC(c3ccc(OC(F)(F)F)cc3)CC2)cc1`, in data set [1], the MIC was 0.03 µg/mL (≈ 0.0583 µM). In data set [2], the 50% inhibitory concentration (IC50) at 72 h was over 100 µM.
For `NNC(=O)c1ccncc1` [ISONIAZID], in [1], the MIC came to 0.1 µg/mL (≈ 0.729 µM). For the same compound, the “fold change (FC)” value in data set [19] came to 1.25.
On to `Cc1ccc2[nH]c(C)c(C(=O)NCc3ccc(N4CCC(c5ccc(OC(F)(F)F)cc5)CC4)cc3)c2c1`, for which, in data set [1], the MIC was found to be 10 µg/mL (≈ 19.2 µM).

These data come from ChEMBL document CHEMBL3868613, “Discovery of new chemical entities as potential leads against Mycobacterium tuberculosis” (Bioorg Med Chem Lett, 2016).
